Laboratory results taken from ChEMBL document CHEMBL4622979, “Non-rigid Diarylmethyl Analogs of Baloxavir as Cap-Dependent Endonuclease Inhibitors of Influenza Viruses” (J Med Chem, 2020).
The source made the active and inactive calls. The calls are words filed in the database; no cut-off is given here.

Key:
[1] = Protein binding in mouse plasma at 1 uM measured after 4 hrs by LC-MS/MS analysis; format: ADME, cell-free; conditions: read-out: PPB (converted)
Influenza A virus [2] = test: (§1) Antiviral activity against Influenza A/California/04/2009 (H1N1)pdm09 infected in specific pathogen-free BALB/c mouse assessed as protection against virus-induced mouse death at 50 mg/kg, po administered via gavage immediately after infection and at 12 hrs post-infection measured on 16 days post-infection relative to control; format: functional
[3] = Ratio of AUClast in CD1 mouse heart to plasma assessed as (12aR)-12-(Diphenylmethyl)-7-hydroxy-3,4,12,12a-tetrahydro-1H-[1,4]oxazino[3,4-c]pyrido[2,1-f ][1,2,4]triazine-6,8-dione level at 15 mg/kg, po administered as single dose measured up to 24 hrs by LC-MS/MS analysis; format: ADME, organism-based; conditions: other tissue
[4] = Ratio of AUClast in CD1 mouse lung to plasma assessed as (12aR)-12-(Diphenylmethyl)-7-hydroxy-3,4,12,12a-tetrahydro-1H-[1,4]oxazino[3,4-c]pyrido[2,1-f ][1,2,4]triazine-6,8-dione level at 15 mg/kg, po administered as single dose by LC-MS/MS analysis; format: ADME, organism-based; conditions: other tissue
[5] = Elimination rate constant in CD1 mouse trachea assessed as (12aR)-12-(Diphenylmethyl)-7-hydroxy-3,4,12,12a-tetrahydro-1H-[1,4]oxazino[3,4-c]pyrido[2,1-f ][1,2,4]triazine-6,8-dione level at 15 mg/kg, po administered as single dose measured up to 24 hrs by LC-MS/MS analysis; format: ADME, organism-based; conditions: in vivo
[6] = AUClast in CD1 mouse liver assessed as (12aR)-12-(Diphenylmethyl)-7-hydroxy-3,4,12,12a-tetrahydro-1H-[1,4]oxazino[3,4-c]pyrido[2,1-f ][1,2,4]triazine-6,8-dione level at 15 mg/kg, po administered as single dose measured up to 24 hrs by LC-MS/MS analysis; format: ADME, organism-based; conditions: in vivo
[7] = Stability in simulated intestinal fluid assessed as parent compound remaining at 1 uM measured after 4 hrs at pH 1.2 by LC-MS/MS analysis; format: physicochemical; conditions: read-out: Stability
[8] = Tmax in CD1 mouse trachea assessed as (12aR)-12-(Diphenylmethyl)-7-hydroxy-3,4,12,12a-tetrahydro-1H-[1,4]oxazino[3,4-c]pyrido[2,1-f ][1,2,4]triazine-6,8-dione level at 15 mg/kg, po administered as single dose measured up to 24 hrs by LC-MS/MS analysis; format: ADME, organism-based; conditions: in vivo
[9] = Toxicity in Influenza A/California/04/2009 (H1N1)pdm09 infected specific pathogen-free BALB/c mouse assessed as effect on body weight at 20 to 50 mg/kg, po administered via gavage immediately after infection and at 12 hrs post-infection measured after 10 days post-infection; format: organism-based; conditions: in vivo, 240 h
[10] = Tmax in CD1 mouse kidney assessed as (12aR)-12-(Diphenylmethyl)-7-hydroxy-3,4,12,12a-tetrahydro-1H-[1,4]oxazino[3,4-c]pyrido[2,1-f ][1,2,4]triazine-6,8-dione level at 15 mg/kg, po administered as single dose measured up to 24 hrs by LC-MS/MS analysis; format: ADME, organism-based; conditions: in vivo
[11] = AUCinfinity in CD1 mouse muscle assessed as (12aR)-12-(Diphenylmethyl)-7-hydroxy-3,4,12,12a-tetrahydro-1H-[1,4]oxazino[3,4-c]pyrido[2,1-f ][1,2,4]triazine-6,8-dione level at 15 mg/kg, po administered as single dose measured up to 24 hrs by LC-MS/MS analysis; format: ADME, organism-based, Muscle tissue; parameters: dose 15 mg/kg, route oral, time infinity; conditions: in vivo
[12] = Ratio of AUClast in CD1 mouse blood to plasma assessed as (12aR)-12-(Diphenylmethyl)-7-hydroxy-3,4,12,12a-tetrahydro-1H-[1,4]oxazino[3,4-c]pyrido[2,1-f ][1,2,4]triazine-6,8-dione level at 15 mg/kg, po administered as single dose measured up to 24 hrs by LC-MS/MS analysis; format: ADME, organism-based; conditions: in vivo
[13] = Acute toxicity in CD1 mouse assessed as effect on intestine at 2000 mg/kg, po measured after 2 weeks by macroscopic analysis; format: organism-based; conditions: in vivo, 336 h
[14] = AUClast in CD1 mouse brain assessed as (12aR)-12-(Diphenylmethyl)-7-hydroxy-3,4,12,12a-tetrahydro-1H-[1,4]oxazino[3,4-c]pyrido[2,1-f ][1,2,4]triazine-6,8-dione level at 15 mg/kg, po administered as single dose measured up to 24 hrs by LC-MS/MS analysis; format: ADME, organism-based; conditions: in vivo
[15] = Stability in simulated gastric fluid assessed as parent compound remaining at 1 uM measured after 4 hrs at pH 1.2 by LC-MS/MS analysis; format: physicochemical; conditions: read-out: Stability
[16] = Protein binding in rat plasma at 1 uM measured after 4 hrs by LC-MS/MS analysis; format: ADME, cell-free; conditions: read-out: PPB (converted)
[17] = Protein binding in human plasma at 1 uM measured after 4 hrs by LC-MS/MS analysis; format: ADME, cell-free; conditions: read-out: PPB (converted)
[18] = Ratio of AUClast in CD1 mouse kidney to plasma assessed as (12aR)-12-(Diphenylmethyl)-7-hydroxy-3,4,12,12a-tetrahydro-1H-[1,4]oxazino[3,4-c]pyrido[2,1-f ][1,2,4]triazine-6,8-dione level at 15 mg/kg, po administered as single dose measured up to 24 hrs by LC-MS/MS analysis; format: ADME, organism-based; conditions: other tissue
Influenza A virus [19] = test: Antiviral activity against Influenza A/California/04/2009 (H1N1)pdm09 infected in specific pathogen-free BALB/c mouse assessed as reduction in virus titre in lung at 50 mg/kg, po administered via gavage immediately after infection and at 12 hrs post-infection measured 24 hrs post-infection; format: functional, organism-based
Influenza A virus [20] = test: as §1, with “20” for “50”; format: functional
[21] = Ratio of AUClast in CD1 mouse lung to plasma assessed as baloxavir acid level at 15 mg/kg, po administered as single dose measured up to 24 hrs by LC-MS/MS analysis; format: ADME, organism-based; conditions: other tissue
[22] = AUCinfinity in CD1 mouse brain assessed as baloxavir acid level at 15 mg/kg, po administered as single dose measured up to 24 hrs by LC-MS/MS analysis; format: ADME, organism-based; parameters: dose 15 mg/kg, time infinity, route oral; conditions: in vivo
[23] = Cmax in CD1 mouse plasma assessed as baloxavir acid level at 15 mg/kg, po administered as single dose measured up to 24 hrs by LC-MS/MS analysis; format: ADME, organism-based; parameters: dose 15 mg/kg, route oral; conditions: in vivo
[24] = Elimination rate constant in CD1 mouse lung assessed as baloxavir acid level at 15 mg/kg, po administered as single dose measured up to 24 hrs by LC-MS/MS analysis; format: ADME, organism-based; conditions: in vivo
[25] = Tmax in CD1 mouse muscle assessed as baloxavir acid level at 15 mg/kg, po administered as single dose measured up to 24 hrs by LC-MS/MS analysis; format: ADME, organism-based, Muscle tissue; conditions: in vivo
[26] = Cmax in CD1 mouse trachea assessed as baloxavir acid level at 15 mg/kg, po administered as single dose measured after 4 hrs by LC-MS/MS analysis; format: ADME, organism-based; parameters: dose 15 mg/kg, route oral; conditions: in vivo
[27] = AUClast in CD1 mouse liver assessed as baloxavir acid level at 15 mg/kg, po administered as single dose measured up to 24 hrs by LC-MS/MS analysis; format: ADME, organism-based; conditions: in vivo

SMILES | fraction unbound at 4 h, 1 µM [1] | Activity (Influenza A virus [2]) [%] | remaining at 4 h, 1 µM [7] [%] | Activity [9] | remaining at 4 h, 1 µM [15] [%] | fraction unbound at 4 h, 1 µM [16] | fraction unbound at 4 h, 1 µM [17] | Activity (Influenza A virus [19]) | Activity (Influenza A virus [20]) [%] | other results
COC(=O)OCOc1c2n(ccc1=O)N(C(c1ccccc1)c1ccccc1)[C@@H]1COCCN1C2=O | 0.009 | 80 | 93.7 | Non-Toxic | 94.8 | 0.016 | 0.01 | Active | 80 | Ratio AUC [3]: 3.38; Ratio AUC [4]: 3; Kel [5]: 0.14 h⁻¹; AUClast [6]: 34818 ng·h/g; Tmax [8]: 30 min; Tmax [10]: 30 min; AUC [11]: 7693 ng·h/g; Ratio AUC [12]: 0.82; Activity [13]: Non-Toxic; AUClast [14]: 609 ng·h/g; Ratio AUC [18]: 5.5
COC(=O)OCOc1c2n(ccc1=O)N([C@@H]1c3ccccc3SCc3c1ccc(F)c3F)[C@@H]1COCCN1C2=O [BALOXAVIR MARBOXIL] | 0.08 | 90 | 87.9 | Non-Toxic | 101 | 0.064 | 0.057 | Active | 80 | Ratio AUC [21]: 21.1; AUC [22]: 411 ng·h/g; Cmax [23]: 88.5 ng/mL; Kel [24]: 0.2 h⁻¹; Tmax [25]: 120 min; Cmax [26]: 277 ng/g; AUClast [27]: 85226 ng·h/g
